Values of other authors as cited in patent US5705486A, “Isolation of novel peptides from green barley leaf extract and use same to inhibit human platelet aggregation” (Hagiwara; Yoshihide, priority 1996, dated 1998).

Test system: rat anterior pituitary cells
Conditions: in vitro

Which “release of growth hormone and/or prolactin from rat anterior pituitary cells” value (Badamchian et al 1994) does the source give for `Cc1c(C)c2c(c(C)c1OC(=O)CCC(=O)O)CC[C@@](C)(CCC[C@H](C)CCC[C@H](C)CCCC(C)C)O2` [α-tocopherol succinate] here?
Its value is “enhances the release”.

What about the “prolactin release from rat anterior pituitary cells” value (Badamchian et al 1995) of the same molecule?
Its value is “significant increase”.
